We go through four molecules from PMC7996328, “Design, Synthesis, and Biological Evaluation of a Series of 5- and 7-Hydroxycoumarin Derivatives as 5-HT1A Serotonin Receptor Antagonists” (Pharmaceuticals, 2021).

A short description of data set [1]: Solubility under experimental conditions of the 5-HT1A assay. The note with it: reason for not testing in 5-HT1A assay. It is filed as physicochemical. Here is the method: Compounds were dissolved in 9.5% DMSO and 0.5% Kolliphor® EL (Sigma Aldrich, Taufkirchen, Germany). Serial dilutions of the compounds tested (10^−10–10^−5 M) were incubated in triplicate with 0.8 nM [^35S]GTPγS in assay buffer (50 mM Tris-HCl, pH = 7.4, 1 mM EGTA, 3 mM MgCl2, 100 mM NaCl, 30 µM GDP) and 8-OH-DPAT (final concentration 1.4 × 10^−7 M) in the final assay volume of 250 µL. Hippocampal homogenates (15 μg/mL) were added to each tube as the 5-HT1A receptor source. The final DMSO and Kolliphor® EL concentrations were 0.95% and 0.05%, respectively. Non-specific binding was determined with 10 µM of unlabeled GTPγS. The reaction mixture was incubated for 90 min at 37 °C in a volume of 250 µL. Next, 96-well Unifilter® Plates (Perkin Elmer, Waltham, MA, USA) were presoaked for 1 h with 50 mM Tris-HCl (pH = 7.4) before harvesting. The reaction was terminated by vacuum filtration onto filter plates with the FilterMate Harvester® (Perkin Elmer, Waltham, MA, USA). The samples were then rapidly washed with 2 mL of 50 mM Tris-HCl (pH = 7.4) buffer. Filter plates were dried for 2 h at 50 °C. After drying, 45 µL of EcoScint-20 scintillant (Perkin Elmer) was added to every well. Radioactivity was counted in a Trilux MicroBeta^2 counter (Perkin Elmer). Data were analyzed with GraphPad Prism 5.0 software (GraphPad Software, San Diego, CA, USA, www.graphpad.com). Curves were fitted with a one-site non-linear regression model. Efficacy (Emax) and half maximal inhibitory concentration (IC50) were calculated from the Cheng–Prusoff equation and expressed as means ± SEM.

In another data set the target is T1, 5-HT2A receptor (Rattus norvegicus, UniProt P14842).
T1 construct: from tissue; host or cells: rat frontal cortex (male SD), membrane homogenate
Kind of data set: 5-HT2A competition binding assay, [3H]ketanserin, frontal cortex homogenates. The following applies: [3H]ketanserin 1 nM, read-out: Ki (nM ± SEM) (converted).

T1 sequence (P14842 whole entry): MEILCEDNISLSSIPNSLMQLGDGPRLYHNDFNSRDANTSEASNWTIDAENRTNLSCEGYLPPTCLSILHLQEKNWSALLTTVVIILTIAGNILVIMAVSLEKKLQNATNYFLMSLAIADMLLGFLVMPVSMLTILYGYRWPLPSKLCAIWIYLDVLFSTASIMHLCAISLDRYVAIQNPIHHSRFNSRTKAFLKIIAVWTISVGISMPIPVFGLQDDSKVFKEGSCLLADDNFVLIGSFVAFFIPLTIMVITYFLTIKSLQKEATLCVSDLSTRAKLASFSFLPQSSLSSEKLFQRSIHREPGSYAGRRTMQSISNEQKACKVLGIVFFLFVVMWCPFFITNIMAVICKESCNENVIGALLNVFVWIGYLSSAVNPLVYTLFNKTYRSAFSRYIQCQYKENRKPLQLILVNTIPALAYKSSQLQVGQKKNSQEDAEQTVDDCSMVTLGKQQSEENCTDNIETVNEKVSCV

In turn, `Cc1ccc(C)c(N2CCN(CCCCCOc3cc(C)cc4oc(=O)cc(C)c34)CC2)c1` [Compound 1d, 5-(5-(4-(2,5-dimethylphenyl)piperazin-1-yl)pentyloxy)-4,7-dimethyl-2H-chromen-2-one] came in with a melting point of 132 to 134 °C. Besides, in data set [1], the “solubility under experimental conditions” value is recorded as “very poor solubility”.
For `Cc1cc(OCCCCCN2CCN(c3cccc(Br)c3)CC2)c2c(C)cc(=O)oc2c1` [Compound 1g, 5-(5-(4-(3-bromophenyl)piperazin-1-yl)pentyloxy)-4,7-dimethyl-2H-chromen-2-one], in that order: 107 to 109 °C and “very poor solubility”.
With `CC(=O)c1c(C)cc2oc(=O)cc(C)c2c1OCCCCCN1CCN(c2ccccc2C#N)CC1` [Compound 3j, 6-acetyl-5-(5-(4-(2-cyanophenyl)piperazin-1-yl)pentyloxy)-4,7-dimethyl-2H-chromen-2-one], the melting point is 116 to 118 °C. Also, the “solubility under experimental conditions” value in data set [1] is “very poor solubility”.
`CC(=O)c1c(OCCN2CCN(c3cccc(Br)c3)CC2)ccc2c(C)cc(=O)oc12` [Compound 6g, 8-acetyl-7-(2-[4-(3-bromohenyl)piperazin-1-yl]ethoxy)-4-methylchromen-2-one] returned a melting point of 110 to 112 °C. For the same molecule, the “solubility under experimental conditions” value in data set [1] is given as “very poor solubility”. Further, the Ki at 5-HT2A receptor is 1490 ± 466 nM.

Broadly, the melting point is the temperature, or range, at which the solid turns liquid. As a reminder, the Ki is the equilibrium dissociation constant of an inhibitor or competing ligand from its target.
